Read-outs that look alike come from different tables or passages of the source.
Experiments:
TRKA = TRKA (Homo sapiens (Human), UniProt P04629); experiment: Inhibitory activity on TRKA (ADP-Glo Kinase Assay)
TRKB = TRKB (Homo sapiens (Human), UniProt Q16620); experiment: Inhibitory activity on TRKB (ADP-Glo Kinase Assay)
TRKC = TRKC (Homo sapiens (Human), UniProt Q16288); experiment: Inhibitory activity on TRKC (ADP-Glo Kinase Assay)
[1] = test system: imiquimod-induced psoriasis model; experiment: Imiquimod-induced psoriasis model in mice; settings: for Clinical Score (mean ± standard error) / Skin Thickness Score (mean ± standard error): Calcitriol 75 mg/mice topical QD
acne model in rabbits = experiment: Acne model in rabbits (coal tar + Propionibacterium acnes); assay type: in vivo, New Zealand white rabbits; settings: 1% Clindamycin gel 0.5 g/kg once per day
Description: Modeling: Rabbits were acclimated for 7 days. On the right inner ear canal exit of the rabbits, a 2 cm×2 cm area was treated with 2% coal tar solution once a day, 0.5-1 mL each time, for 26 consecutive days. […] On the 8th day, Propionibacterium acnes was injected intradermally at 3-4 sites on the rabbit ears, 50 μl per rabbit, injected every other day for a total of 5 times. Treatment was started randomly on the 9th day after the last injection.
Rabbits were treated according to their groups. The blank group received no treatment. […] The model group received an equal amount of vehicle treatment, with the same application method and duration as the test drug groups.
Twenty-four hours after the last administration, a 2.8 cm punch was used to prepare ear samples at the application site, and their weight was measured. The ears from the modeling site were fixed with 4% paraformaldehyde, and consecutive sections (3 slices) were taken from the same location for HE staining and histopathological analysis. At the same time, the area of 3 hair follicles and the diameter of 3 sebaceous glands were measured to calculate the average values. Blood was drawn from the heart and centrifuged to obtain serum, and the levels of interleukin-1α (IL-1α), interleukin-6 (IL-6), and dihydrotestosterone (DHT) in serum were determined according to the ELISA kit instructions.
Tissue samples from animal ears were excised, fixed in 4% paraformaldehyde, dehydrated, embedded in paraffin, and sectioned and HE stained for observation of histopathological morphology changes. The tissue samples were fixed in 4% paraformaldehyde at normal temperature and the taken ears tissue was rinsed with running water for several hours, dehydrated through a series of ethanol solutions (70%, 80%, 90%), and then treated with a mixture of pure alcohol and xylene for 15 minutes, followed by xylene I for 15 minutes and xylene II for 15 minutes (until transparent). The tissue was then placed in a mixture of xylene and paraffin at a volume ratio of 1:1 for 15 minutes, followed by immersion with paraffin I and paraffin II each for 50-60 minutes. The tissue was embedded in paraffin and sectioned, and the sections were baked, dewaxed and hydrated in distilled water. The resulting sections were then stained in hematoxylin solution for 3 minutes, differentiated in a hydrochloric acid alcohol solution for 15 seconds, slightly washed, blued in a return blue solution for 15 seconds, rinsed with running water, stained with eosin for 3 minutes, rinsed with running water, dehydrated, cleared, and mounted for microscopic examination.
A double-antibody one-step sandwich Enzyme-linked Immunosorbent Assay (ELISA) ket was used. A capture antibody for the mouse target indicators was pre-coated onto microplate wells, to which samples, standards, and HRP-labeled detection antibodies were added sequentially, followed by incubation and thorough washing. TMB substrate was added for color development, which turned into blue in the presence of peroxidase and then into yellow after acidification. The depth of color was positively correlated with the concentration of the target in the samples. The absorbance (OD450 value) was measured at a wavelength of 450 nm using the microplate reader, and the sample concentration was calculated.

[2] = test system: ovalbumin-induced asthma model in mice; experiment: Ovalbumin-induced asthma model in mice; assay type: in vivo, Balb/c mice; settings: vs. vehicle (model) group; nasal administration BID 5 days: MDI-1228 3 mg/kg, MDI-1288 3 mg/kg, MDI-1233 1, 3, 10 mg/kg; dexamethasone 1 mg/kg gavage QD
Description: After 7 days of acclimatization, animals were randomly grouped based on their body weight. The experiment was divided into 8 groups, with 8 mice in each group, as detailed in the table below.
• Preparation of Immunogen: Weigh an appropriate amount of OVA, to which an appropriate amount of PBS was added, to achieve a final concentration of 0.1 mg/ml. Then, an equal volume of aluminum adjuvant was added, and the resulting mixture was mixed well, and stored at 4° C., which was prepared before use. • Preparation of Sensitizer (5% OVA): Weigh an appropriate amount of OVA, to which an appropriate amount of PBS was added, to achieve a final concentration of 5%. The resulting mixture was mixed well, and store it at 4° C. for later use, which was prepared before use. • Preparation of Vehicle: Add 200 μl of Tween 80 to 100 ml of saline, and mix it well. […] Mix it well, and store it at 4° C. for later use. […] Mix it well, and store it at 4° C. for later use. […] Mix it well, and store it at 4° C. for later use. The solution was prepared once every three days.
• Immunization: On days 0, 7, 14, and 21, 200 μl of PBS was injected intraperitoneally for the first group, and 200 μl of (10 μg) OVA/aluminum adjuvant emulsion was injected intraperitoneally for groups 2-8. • Sensitization: From days 28 to 32, the first group of animals was exposed to nebulized PBS in a nebulization box for 20 minutes, and the groups 2-8 were exposed to nebulized 5% OVA in a nebulization box for 20 minutes. And then, they were removed. The sensitization was conducted at 12:30 PM daily. • Administration: The medicine was administrated twice a day at 9 AM and 5 PM via nasal drops. Dexamethasone (Dex) was administered by gavage once a day at 9 AM.
Serum IgE: Blood was collected from the orbits of animals after carbon dioxide euthanasia, and plasma was separated and stored at −40 degrees for plasma IgE detection.
Bronchoalveolar Lavage Fluid (BALF) Cell Count: An appropriate amount of foetal bovine serum was weighted and dissolved in PBS to a final concentration of 1%. After orbital blood collection, the trachea was exposed, and a 1 ml syringe needle was replaced with a mouse gavage needle. 0.8 ml of the lavage fluid was aspirated from the syringe and the lungs were lavaged three times. The lavage fluids were collected, and centrifuged at 1000 rpm for 10 minutes, and the supernatant was collected and stored at −40 degrees Celsius. Cells were resuspended with 1 ml of PBS and counted. 100 ul of centrifuged smear was taken and stained with Diff quick and the number of eosinophils, basophils, lymphocytes and macrophages were recorded.
Bronchoalveolar Lavage Fluid IL-5: Bronchoalveolar lavage fluid was collected to detect IL-5.
Pathological scoring criteria were: • A) 0 points: No lymphocyte infiltration; • B) 1 point: Trace lymphocyte infiltration; • C) 2 points: Mild lymphocyte infiltration; • D) 3 points: Moderate lymphocyte infiltration; • E) 4 points: Severe lymphocyte infiltration; • After scoring, the results were calculated and analyzed.

TRKC, sequence (Q16288 32-839): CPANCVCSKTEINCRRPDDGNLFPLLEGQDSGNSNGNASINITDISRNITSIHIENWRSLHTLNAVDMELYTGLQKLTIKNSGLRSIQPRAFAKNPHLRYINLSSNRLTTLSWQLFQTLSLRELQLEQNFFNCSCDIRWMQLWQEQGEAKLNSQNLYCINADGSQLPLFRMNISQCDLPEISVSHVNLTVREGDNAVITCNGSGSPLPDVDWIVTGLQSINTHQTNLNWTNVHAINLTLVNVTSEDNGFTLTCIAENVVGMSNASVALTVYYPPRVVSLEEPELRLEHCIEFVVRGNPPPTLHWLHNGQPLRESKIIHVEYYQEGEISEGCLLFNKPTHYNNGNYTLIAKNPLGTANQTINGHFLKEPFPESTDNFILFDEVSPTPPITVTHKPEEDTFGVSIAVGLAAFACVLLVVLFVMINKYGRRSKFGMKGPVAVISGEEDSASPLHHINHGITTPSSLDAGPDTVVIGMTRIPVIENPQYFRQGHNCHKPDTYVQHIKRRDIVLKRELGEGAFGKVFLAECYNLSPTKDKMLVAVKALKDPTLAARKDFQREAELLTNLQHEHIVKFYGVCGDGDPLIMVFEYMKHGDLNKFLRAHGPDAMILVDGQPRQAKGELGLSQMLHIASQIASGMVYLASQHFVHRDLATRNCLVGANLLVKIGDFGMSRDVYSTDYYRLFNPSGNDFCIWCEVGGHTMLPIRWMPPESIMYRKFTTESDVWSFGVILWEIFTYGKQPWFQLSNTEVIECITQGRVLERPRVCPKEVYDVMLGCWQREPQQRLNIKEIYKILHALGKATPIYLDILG
TRKB, sequence (Q16620 32-822): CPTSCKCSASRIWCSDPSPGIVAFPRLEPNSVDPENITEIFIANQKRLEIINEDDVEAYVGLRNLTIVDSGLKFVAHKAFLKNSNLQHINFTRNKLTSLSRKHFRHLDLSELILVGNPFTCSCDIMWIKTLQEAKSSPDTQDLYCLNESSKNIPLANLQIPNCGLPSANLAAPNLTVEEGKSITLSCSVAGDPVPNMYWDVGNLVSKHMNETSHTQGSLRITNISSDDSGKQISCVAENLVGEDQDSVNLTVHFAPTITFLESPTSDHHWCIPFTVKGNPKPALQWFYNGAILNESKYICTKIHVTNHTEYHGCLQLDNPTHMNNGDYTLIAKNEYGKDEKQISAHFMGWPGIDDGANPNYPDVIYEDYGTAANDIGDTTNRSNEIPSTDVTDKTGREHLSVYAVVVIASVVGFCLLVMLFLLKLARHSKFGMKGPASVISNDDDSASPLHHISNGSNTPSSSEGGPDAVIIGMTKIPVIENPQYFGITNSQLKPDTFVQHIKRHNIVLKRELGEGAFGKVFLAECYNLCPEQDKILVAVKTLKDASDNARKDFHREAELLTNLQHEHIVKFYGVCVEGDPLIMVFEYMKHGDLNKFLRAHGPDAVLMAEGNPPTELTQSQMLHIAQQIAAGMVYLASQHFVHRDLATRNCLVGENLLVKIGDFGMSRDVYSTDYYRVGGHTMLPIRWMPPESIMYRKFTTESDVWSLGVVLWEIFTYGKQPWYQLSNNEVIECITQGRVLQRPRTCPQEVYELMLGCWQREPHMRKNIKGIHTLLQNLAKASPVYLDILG
TRKA, sequence (P04629 33-796 limits assumed): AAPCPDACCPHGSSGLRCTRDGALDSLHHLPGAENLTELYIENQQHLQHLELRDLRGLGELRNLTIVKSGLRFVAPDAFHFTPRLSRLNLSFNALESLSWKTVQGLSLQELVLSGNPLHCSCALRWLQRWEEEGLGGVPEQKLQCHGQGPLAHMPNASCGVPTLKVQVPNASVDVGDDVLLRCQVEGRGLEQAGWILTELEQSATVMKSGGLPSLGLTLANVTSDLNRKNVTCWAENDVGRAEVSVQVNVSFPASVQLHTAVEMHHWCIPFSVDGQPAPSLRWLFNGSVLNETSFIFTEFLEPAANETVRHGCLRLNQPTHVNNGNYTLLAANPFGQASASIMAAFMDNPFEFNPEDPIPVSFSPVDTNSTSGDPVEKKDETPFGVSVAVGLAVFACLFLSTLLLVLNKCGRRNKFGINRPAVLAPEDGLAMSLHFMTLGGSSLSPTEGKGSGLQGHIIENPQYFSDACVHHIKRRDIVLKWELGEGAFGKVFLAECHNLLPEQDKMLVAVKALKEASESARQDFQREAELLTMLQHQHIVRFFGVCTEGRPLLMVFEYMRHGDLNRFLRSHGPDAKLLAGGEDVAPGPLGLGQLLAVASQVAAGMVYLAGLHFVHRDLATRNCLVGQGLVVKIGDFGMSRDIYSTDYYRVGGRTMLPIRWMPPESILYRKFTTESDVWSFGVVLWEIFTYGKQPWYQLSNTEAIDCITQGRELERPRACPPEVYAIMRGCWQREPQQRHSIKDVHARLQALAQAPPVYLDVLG

Compound: CCc1cc(O)c(F)cc1-c1ccc2c(-c3nc4c([nH]3)CN(C(=O)c3cnc(N5CCOCC5)cn3)C4)n[nH]c2c1 [MDI-201, (2-(6-(2-ethyl-5-fluoro-4-hydroxyphenyl)-1H-indazol-3-yl)-4,6-dihydropyrrolo[3,4-d]imidazol-5(1H)-yl)(5-morpholinepyrazin-2-yl)ketone]
- IC50 (TRKA): 5.76 nM
- IC50 (TRKB): 6.14 nM
- IC50 (TRKC): 2.2 nM

Compound: C=C1/C(=C\C=C2/CCC[C@]3(C)[C@@H]([C@H](C)CCCC(C)(C)O)CC[C@@H]23)C[C@@H](O)C[C@@H]1O [Calcitriol]
- Clinical Score (mean ± standard error) ([1]; Day 0): 0.0 ± 0.00
- Skin Thickness Score (mean ± standard error) ([1]; Day 0): 0.0 ± 0.00
- Clinical Score (mean ± standard error) ([1]; Day 1): 0.2 ± 0.13
- Skin Thickness Score (mean ± standard error) ([1]; Day 1): 0.0 ± 0.00
- Clinical Score (mean ± standard error) ([1]; Day 2): 1.2 ± 0.13
- Skin Thickness Score (mean ± standard error) ([1]; Day 2): 0.0 ± 0.00
- Clinical Score (mean ± standard error) ([1]; Day 3): 3.1 ± 0.28
- Skin Thickness Score (mean ± standard error) ([1]; Day 3): 0.7 ± 0.15
- Clinical Score (mean ± standard error) ([1]; Day 4): 4.3 ± 0.26
- Skin Thickness Score (mean ± standard error) ([1]; Day 4): 1.2 ± 0.20
- Clinical Score (mean ± standard error) ([1]; Day 5): 2.9 ± 0.18
- Skin Thickness Score (mean ± standard error) ([1]; Day 5): 0.8 ± 0.20
- Clinical Score (mean ± standard error) ([1]; Day 6): 2.5 ± 0.17
- Skin Thickness Score (mean ± standard error) ([1]; Day 6): 0.5 ± 0.17
- Clinical Score (mean ± standard error) ([1]; Day 7): 2.0 ± 0.00
- Skin Thickness Score (mean ± standard error) ([1]; Day 7): 0.0 ± 0.00
- Inhibition percentage of skin thickness score AUC relative to vehicle control group ([1]; calcitriol 75 mg/mice QD): 64.2%
- Skin histopathology ([1]; calcitriol 75 mg/mice QD): a trend of mitigation

Compound: CCc1cc(O)c(F)cc1-c1ccc2c(-c3nc4c([nH]3)CN(C(=O)N3CCCC3)C4)n[nH]c2c1 [MDI-231, (2-(6-(2-ethyl-5-fluoro-4-hydroxyphenyl)-1H-indazol-3-yl)-4,6-dihydropyrrolo[3,4-d]imidazol-5-(1H)-yl)(pyrrolidin-1-yl)ketone]
- IC50 (TRKA): 2.82 nM
- IC50 (TRKB): 5.86 nM
- IC50 (TRKC): 1.49 nM

Compound: CCc1cc(O)c(F)cc1-c1ccc2c(-c3nc4c([nH]3)CN(C(=O)N3CCOCC3)C4)n[nH]c2c1 [MDI-234, (2-(6-(2-ethyl-5-fluoro-4-hydroxyphenyl)-1H-indazol-3-yl)-4,6-dihydropyrrolo[3,4-d]imidazol-5-(1H)-yl)(morpholino)ketone]
- IC50 (TRKA): 1.07 nM
- IC50 (TRKB): 1.27 nM
- IC50 (TRKC): 0.65 nM

Compound: CCc1cc(O)c(F)cc1-c1ccc2c(-c3nc4c([nH]3)CN(S(=O)(=O)C3CC3)C4)n[nH]c2c1 [MDI-218, 4-(3-(5-(cyclopropanesulfonyl)-1,4,5,6-tetrahydropyrrolo[3,4-d]imidazol-2-yl)-1H-indazol-6-yl)-5-ethyl-2-fluorophenol]
- IC50 (TRKA; read-out: TRKA IC50, ATP 5 μM): 9.97 nM
- IC50 (TRKB; read-out: TRKB IC50, ATP 5 μM): 32.3 nM
- IC50 (TRKC; read-out: TRKC IC50, ATP 5 μM): 5.1 nM

Compound: CCC[C@@H]1C[C@@H](C(=O)N[C@@H]([C@H]2O[C@H](SC)[C@H](O)[C@@H](O)[C@H]2O)[C@H](C)Cl)N(C)C1 [clindamycin, reference compound]
- Hair follicle area (acne model in rabbits): not improved
- Rabbit ear weight (acne model in rabbits; 2 weeks): did not reduce ear weight

Compound: CCc1cc(O)c(F)cc1-c1ccc2c(-c3nc4c([nH]3)CN(C(=O)N3CCCCC3)C4)n[nH]c2c1 [MDI-233]
- IC50 (TRKA): 9.01 nM
- IC50 (TRKB): 30.4 nM
- IC50 (TRKC): 6.32 nM

Compound: CCc1cc(O)c(F)cc1-c1ccc2c(-c3nc4c([nH]3)CN(C(=O)NCCO)C4)n[nH]c2c1 [MDI-248, 2-(6-(2-ethyl-5-fluoro-4-hydroxyphenyl)-1H-indazol-3-yl)-N-(2-hydroxylethyl)-4,6-dihydropyrrolo[3,4-d]imidazol-5(1H)-carboxamide]
- IC50 (TRKA; read-out: TRKA IC50, ATP 5 μM): 12 nM
- IC50 (TRKB; read-out: TRKB IC50, ATP 5 μM): 3.58 nM
- IC50 (TRKC; read-out: TRKC IC50, ATP 5 μM): 3.77 nM

Compound: CCOC(=O)N1Cc2nc(-c3n[nH]c4cc(-c5cc(F)c(O)cc5CC)ccc34)[nH]c2C1 [MDI-253, Ethyl 2-(6-(2-ethyl-5-fluoro-4-hydroxyphenyl)-1H-indazol-3-yl)-4,6-dihydropyrrolo[3,4-d]imidazol-5(1H)-carboxylate]
- IC50 (TRKA; read-out: TRKA IC50, ATP 5 μM): 11.4 nM
- IC50 (TRKB; read-out: TRKB IC50, ATP 5 μM): 98.8 nM
- IC50 (TRKC; read-out: TRKC IC50, ATP 5 μM): 13.1 nM

Compound: C[C@@H]1C[C@H]2[C@@H]3CCC4=CC(=O)C=C[C@]4(C)[C@@]3(F)[C@@H](O)C[C@]2(C)[C@@]1(O)C(=O)CO [dexamethasone, reference compound]
- Bronchoalveolar lavage fluid IL-5 expression level [2]: significantly reduced the expression of IL-5
- Inflammatory cell count in bronchoalveolar lavage fluid [2]: significantly reduced the Inflammatory Cell Count
- Lung tissue inflammatory cell infiltration (HE pathology) [2]: significantly reduced the lung tissue inflammatory cell infiltration
- Serum IgE expression level [2]: significantly reduced the expression of IgE

Compound: CCc1cc(O)c(F)cc1-c1ccc2c(-c3nc4c([nH]3)CN(C(=O)N(C)C)C4)n[nH]c2c1 [MDI-257, 2-(6-(2-ethyl-5-fluoro-4-hydroxyphenyl)-1H-indazol-3-yl)-N,N-dimethyl-4,6-dihydropyrrolo[3,4-d]imidazol-5(1H)-carboxamide]
- IC50 (TRKB; read-out: TRKB IC50, ATP 5 μM): 2.93 nM
- IC50 (TRKC; read-out: TRKC IC50, ATP 5 μM): 0.72 nM

Compound: CCc1cc(O)c(F)cc1-c1ccc2c(-c3nc4c([nH]3)CN(C(=O)N3CCN(CC)CC3)C4)n[nH]c2c1 [MDI-236, (2-(6-(2-ethyl-5-fluoro-4-hydroxyphenyl)-1H-indazol-3-yl)-4,6-dihydropyrrolo[3,4-d]imidazol-5-(1H)-yl)(4-ethylpiperazin-1-yl)ketone]
- IC50 (TRKA): 0.23 nM
- IC50 (TRKB): 1.06 nM
- IC50 (TRKC): 0.2 nM
